From patent US8211662B2, “Nitroreductase enzymatic substrates” (Biomerieux, priority 2007, dated 2012)

These compounds were tested on Bacillus subtilis NCTC 9372 (assay: Nitroreductase detection on Columbia agar, colonies read under UV). Details: 100 mg/l in Columbia agar, 24 h 37° C., UV 360-365 nm.
Type: cell-based
Design: key: − = no fluorescence detected; +/− = weak fluorescence; + = medium fluorescence; ++ = strong fluorescence
Protocol: (§1) A mass of 40 mg of each substrate was dissolved in 4 ml of dimethylformamide (DMF). This solution was entirely taken up in 400 ml of Columbia agar autoclaved beforehand and kept molten at 50° C. The final concentration for each substrate was 100 mg/l.
(§2) Each of the media was distributed into Petri dishes 90 mm in diameter, in a proportion of 20 ml per dish.
(§3) 18 microorganism strains derived from collections and belonging to various species of bacteria and of yeasts were inoculated onto these media by semi-quantitative isolation of 10 μl of a suspension at 0.5 McFarland diluted to 1/20. The media were incubated for 24 hours at 37° C., then the colonies formed were examined visually under UV illumination at 360-365 nm.

| Structure (SMILES) | Intensity of fluorescence, Bacillus subtilis NCTC 9372 |
| --- | --- |
| COc1cc(-c2nc3ccccc3o2)c([N+](=O)[O-])cc1OC [Substrate 6] | − |

These compounds were tested on Candida albicans ATCC 90028 in the same assay as above. Details: 100 mg/l in Columbia agar, 24 h 37° C., UV 360-365 nm.
Type: cell-based
Design: key: − = no fluorescence detected; +/− = weak fluorescence; + = medium fluorescence; ++ = strong fluorescence
Protocol: as §1, §2, §3

| Structure (SMILES) | Intensity of fluorescence, Candida albicans ATCC 90028 |
| --- | --- |
| COc1cc(-c2nc3ccccc3o2)c([N+](=O)[O-])cc1OC [Substrate 6] | − |

These compounds were tested on Enterobacter cloacae NCTC 11936 in the same assay as above. Details: 100 mg/l in Columbia agar, 24 h 37° C., UV 360-365 nm.
Type: cell-based
Design: key: − = no fluorescence detected; +/− = weak fluorescence; + = medium fluorescence; ++ = strong fluorescence
Protocol: as §1, §2, §3

| Structure (SMILES) | Intensity of fluorescence, Enterobacter cloacae NCTC 11936 |
| --- | --- |
| COc1cc(-c2nc3ccccc3o2)c([N+](=O)[O-])cc1OC [Substrate 6] | + |

These compounds were tested on Enterococcus faecalis NCTC 775 in the same assay as above. Details: 100 mg/l in Columbia agar, 24 h 37° C., UV 360-365 nm.
Type: cell-based
Design: key: − = no fluorescence detected; +/− = weak fluorescence; + = medium fluorescence; ++ = strong fluorescence
Protocol: as §1, §2, §3

| Structure (SMILES) | Intensity of fluorescence, Enterococcus faecalis NCTC 775 |
| --- | --- |
| COc1cc(-c2nc3ccccc3o2)c([N+](=O)[O-])cc1OC [Substrate 6] | − |

What follows are compounds tested on Escherichia coli NCTC 10418 in the same assay as above. Details: 100 mg/l in Columbia agar, 24 h 37° C., UV 360-365 nm.
Type: cell-based
Design: key: − = no fluorescence detected; +/− = weak fluorescence; + = medium fluorescence; ++ = strong fluorescence
Protocol: as §1, §2, §3

| Structure (SMILES) | Intensity of fluorescence, Escherichia coli NCTC 10418 |
| --- | --- |
| COc1cc(-c2nc3ccccc3o2)c([N+](=O)[O-])cc1OC [Substrate 6] | + |

The compounds below were run on Listeria monocytogenes NCTC 11994 in the same assay as above. Details: 100 mg/l in Columbia agar, 24 h 37° C., UV 360-365 nm.
Type: cell-based
Design: key: − = no fluorescence detected; +/− = weak fluorescence; + = medium fluorescence; ++ = strong fluorescence
Protocol: as §1, §2, §3

| Structure (SMILES) | Intensity of fluorescence, Listeria monocytogenes NCTC 11994 |
| --- | --- |
| COc1cc(-c2nc3ccccc3o2)c([N+](=O)[O-])cc1OC [Substrate 6] | − |

What follows are compounds tested on Pseudomonas aeruginosa NCTC 10662 in the same assay as above. Details: 100 mg/l in Columbia agar, 24 h 37° C., UV 360-365 nm.
Type: cell-based
Design: key: − = no fluorescence detected; +/− = weak fluorescence; + = medium fluorescence; ++ = strong fluorescence
Protocol: as §1, §2, §3

| Structure (SMILES) | Intensity of fluorescence, Pseudomonas aeruginosa NCTC 10662 |
| --- | --- |
| COc1cc(-c2nc3ccccc3o2)c([N+](=O)[O-])cc1OC [Substrate 6] | − |

Each compound was assayed on Serratia marcescens NCTC 10211 in the same assay as above. Details: 100 mg/l in Columbia agar, 24 h 37° C., UV 360-365 nm.
Type: cell-based
Design: key: − = no fluorescence detected; +/− = weak fluorescence; + = medium fluorescence; ++ = strong fluorescence
Protocol: as §1, §2, §3

| Structure (SMILES) | Intensity of fluorescence, Serratia marcescens NCTC 10211 |
| --- | --- |
| COc1cc(-c2nc3ccccc3o2)c([N+](=O)[O-])cc1OC [Substrate 6] | + |

What follows are compounds tested on Staphylococcus aureus NCTC 6571 in the same assay as above. Details: 100 mg/l in Columbia agar, 24 h 37° C., UV 360-365 nm.
Type: cell-based
Design: key: − = no fluorescence detected; +/− = weak fluorescence; + = medium fluorescence; ++ = strong fluorescence
Protocol: as §1, §2, §3

| Structure (SMILES) | Intensity of fluorescence, Staphylococcus aureus NCTC 6571 |
| --- | --- |
| COc1cc(-c2nc3ccccc3o2)c([N+](=O)[O-])cc1OC [Substrate 6] | + |

The compounds below were run on Staphylococcus epidermidis NCTC 11047 in the same assay as above. Details: 100 mg/l in Columbia agar, 24 h 37° C., UV 360-365 nm.
Type: cell-based
Design: key: − = no fluorescence detected; +/− = weak fluorescence; + = medium fluorescence; ++ = strong fluorescence
Protocol: as §1, §2, §3

| Structure (SMILES) | Intensity of fluorescence, Staphylococcus epidermidis NCTC 11047 |
| --- | --- |
| COc1cc(-c2nc3ccccc3o2)c([N+](=O)[O-])cc1OC [Substrate 6] | − |

Each compound was assayed on Streptococcus pyogenes NCTC 8306 in the same assay as above. Details: 100 mg/l in Columbia agar, 24 h 37° C., UV 360-365 nm.
Type: cell-based
Design: key: − = no fluorescence detected; +/− = weak fluorescence; + = medium fluorescence; ++ = strong fluorescence
Protocol: as §1, §2, §3

| Structure (SMILES) | Intensity of fluorescence, Streptococcus pyogenes NCTC 8306 |
| --- | --- |
| COc1cc(-c2nc3ccccc3o2)c([N+](=O)[O-])cc1OC [Substrate 6] | − |

What follows are compounds tested on Yersinia enterocolitica NCTC 11176 in the same assay as above. Details: 100 mg/l in Columbia agar, 24 h 37° C., UV 360-365 nm.
Type: cell-based
Design: key: − = no fluorescence detected; +/− = weak fluorescence; + = medium fluorescence; ++ = strong fluorescence
Protocol: as §1, §2, §3

| Structure (SMILES) | Intensity of fluorescence, Yersinia enterocolitica NCTC 11176 |
| --- | --- |
| COc1cc(-c2nc3ccccc3o2)c([N+](=O)[O-])cc1OC [Substrate 6] | − |

Each compound was assayed on Acinetobacter baumanii ATCC 19606 in the same assay as above. Details: 100 mg/l in Columbia agar, 24 h 37° C., UV 360-365 nm.
Type: cell-based
Design: key to Intensity of fluorescence, Acinetobacter baumanii ATCC 19606 / Intensity of the fluorescence, Acinetobacter baumanii ATCC 19606: − = no fluorescence detected; +/− = weak fluorescence; + = medium fluorescence; ++ = strong fluorescence
Protocol: as §1, §2, §3

| Structure (SMILES) | Intensity of fluorescence, Acinetobacter baumanii ATCC 19606 |
| --- | --- |
| COc1cc(-c2nc3ccccc3o2)c([N+](=O)[O-])cc1OC [Substrate 6] | − |

The compounds below were run on Salmonella typhimurium NCTC 74 in the same assay as above. Details: 100 mg/l in Columbia agar, 24 h 37° C., UV 360-365 nm.
Type: cell-based
Design: key to Intensity of fluorescence, Salmonella typhimurium NCTC 74 / F: fluorescence (intensity), Salmonella typhimurium NCTC 74 / Intensity of the fluorescence, Salmonella typhimurium NCTC 74: − = no fluorescence detected; +/− = weak fluorescence; + = medium fluorescence; ++ = strong fluorescence
Protocol: as §1, §2, §3

| Structure (SMILES) | Intensity of fluorescence, Salmonella typhimurium NCTC 74 |
| --- | --- |
| COc1cc(-c2nc3ccccc3o2)c([N+](=O)[O-])cc1OC [Substrate 6] | − |

Same assay, conditions: table 2

| Structure (SMILES) | Salmonella typhimurium result with the substrate |
| --- | --- |
| COc1cc(-c2nc3ccccc3o2)c([N+](=O)[O-])cc1OC [Substrate 6] | negative |

What follows are compounds tested on Morganella morganii 462403 (wild) in the same assay as above. Details: 100 mg/l in Columbia agar, 24 h 37° C., UV 360-365 nm.
Type: cell-based
Design: key to Intensity of fluorescence, Morganella morganii 462403 / F: fluorescence (intensity), Morganella morganii 462403 (wild) / Intensity of the fluorescence, Morganella morganii 462403 (wild): − = no fluorescence detected; +/− = weak fluorescence; + = medium fluorescence; ++ = strong fluorescence
Protocol: as §1, §2, §3

| Structure (SMILES) | Intensity of fluorescence, Morganella morganii 462403 |
| --- | --- |
| COc1cc(-c2nc3ccccc3o2)c([N+](=O)[O-])cc1OC [Substrate 6] | +/− |

Each compound was assayed on MRSA NCTC 11939 in the same assay as above. Details: 100 mg/l in Columbia agar, 24 h 37° C., UV 360-365 nm.
Type: cell-based, Staphylococcus aureus
Design: key: − = no fluorescence detected; +/− = weak fluorescence; + = medium fluorescence; ++ = strong fluorescence
Protocol: as §1, §2, §3

| Structure (SMILES) | Intensity of fluorescence, Staphylococcus aureus NCTC 11939 |
| --- | --- |
| COc1cc(-c2nc3ccccc3o2)c([N+](=O)[O-])cc1OC [Substrate 6] | + |

What follows are compounds tested on Candida glabrata NCPF 3943 in the same assay as above. Details: 100 mg/l in Columbia agar, 24 h 37° C., UV 360-365 nm.
Type: cell-based
Design: key to Intensity of fluorescence, Candida glabrata NCPF3943 / F: fluorescence (intensity), Candida glabrata NCPF 3943 / Intensity of the fluorescence, Candida glabrata NCPF 3943: − = no fluorescence detected; +/− = weak fluorescence; + = medium fluorescence; ++ = strong fluorescence
Protocol: as §1, §2, §3

| Structure (SMILES) | Intensity of fluorescence, Candida glabrata NCPF3943 |
| --- | --- |
| COc1cc(-c2nc3ccccc3o2)c([N+](=O)[O-])cc1OC [Substrate 6] | − |

What follows are compounds tested on S. aureus (including MRSA) 10 strains (assay: Detection of various strains of S. aureus in the presence of substrates). Details: not given.
Type: cell-based, Staphylococcus aureus

| Structure (SMILES) | Distinguishing or identifying Staphylococcus aureus strains, in particular MRSA, from most of the other Gram-positive bacterial strains |
| --- | --- |
| COc1cc(-c2nc3ccccc3o2)c([N+](=O)[O-])cc1OC [Substrate 6] | make it possible to distinguish or identify the Staphylococcus aureus strains |

Same assay, conditions: 24 h; 10 strains

| Structure (SMILES) | No. of strains detected, S. aureus (including MRSA) |
| --- | --- |
| COc1cc(-c2nc3ccccc3o2)c([N+](=O)[O-])cc1OC [Substrate 6] | 10 |

Same assay, conditions: 48 h; 10 strains

| Structure (SMILES) | No. of strains detected, S. aureus (including MRSA) |
| --- | --- |
| COc1cc(-c2nc3ccccc3o2)c([N+](=O)[O-])cc1OC [Substrate 6] | 10 |

These compounds were tested on S. epidermidis 2 strains in the same assay as above. Details: 24 h.
Type: cell-based
Protocol: as §1, §2
18 microorganism strains derived from collections and belonging to various species of bacteria and of yeasts were inoculated onto these media by semi-quantitative isolation of 10 μl of a suspension at 0.5 McFarland diluted to 1/20. […]

| Structure (SMILES) | No. of strains detected, S. epidermidis |
| --- | --- |
| COc1cc(-c2nc3ccccc3o2)c([N+](=O)[O-])cc1OC [Substrate 6] | 0 |

Same assay, conditions: 48 h

| Structure (SMILES) | No. of strains detected, S. epidermidis |
| --- | --- |
| COc1cc(-c2nc3ccccc3o2)c([N+](=O)[O-])cc1OC [Substrate 6] | 2 |

What follows are compounds tested on Staph spp 12 strains in the same assay as above. Details: 24 h.
Type: cell-based

| Structure (SMILES) | No. of strains detected, Staph spp |
| --- | --- |
| COc1cc(-c2nc3ccccc3o2)c([N+](=O)[O-])cc1OC [Substrate 6] | 12 |

Same assay, conditions: 48 h

| Structure (SMILES) | No. of strains detected, Staph spp |
| --- | --- |
| COc1cc(-c2nc3ccccc3o2)c([N+](=O)[O-])cc1OC [Substrate 6] | 12 |

Each compound was assayed on Enterococcus 6 strains in the same assay as above. Details: 24 h.
Type: cell-based

| Structure (SMILES) | No. of strains detected, Enterococcus |
| --- | --- |
| COc1cc(-c2nc3ccccc3o2)c([N+](=O)[O-])cc1OC [Substrate 6] | 0 |

Same assay, conditions: 48 h

| Structure (SMILES) | No. of strains detected, Enterococcus |
| --- | --- |
| COc1cc(-c2nc3ccccc3o2)c([N+](=O)[O-])cc1OC [Substrate 6] | 1 |
